The source made the active and inactive calls.
Assays:
[1] = viability of uninfected HEp-2 cells – cell-based, HTS, cytotoxicity control for RSV inhibitor project, dose response (AID 2410); assay type: functional; details: human respiratory syncytial virus
[2] = target: T1, Heat shock factor protein 1 (Mus musculus, UniProt P38532); assay: enhancement of HSF1-driven luciferase signal – cell-based, NIH3T3, luminescence, dose retest, confirmation (AID 435004); assay type: functional;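 note: stress induced by proteasome inhibitor MG132 added 30 min after compound; luciferase reporter driven by HSF1 response element in NIH3T3 cells; actives raise luminescence as potentiators of the MG132 stress response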
T1 sequence (P38532 whole entry): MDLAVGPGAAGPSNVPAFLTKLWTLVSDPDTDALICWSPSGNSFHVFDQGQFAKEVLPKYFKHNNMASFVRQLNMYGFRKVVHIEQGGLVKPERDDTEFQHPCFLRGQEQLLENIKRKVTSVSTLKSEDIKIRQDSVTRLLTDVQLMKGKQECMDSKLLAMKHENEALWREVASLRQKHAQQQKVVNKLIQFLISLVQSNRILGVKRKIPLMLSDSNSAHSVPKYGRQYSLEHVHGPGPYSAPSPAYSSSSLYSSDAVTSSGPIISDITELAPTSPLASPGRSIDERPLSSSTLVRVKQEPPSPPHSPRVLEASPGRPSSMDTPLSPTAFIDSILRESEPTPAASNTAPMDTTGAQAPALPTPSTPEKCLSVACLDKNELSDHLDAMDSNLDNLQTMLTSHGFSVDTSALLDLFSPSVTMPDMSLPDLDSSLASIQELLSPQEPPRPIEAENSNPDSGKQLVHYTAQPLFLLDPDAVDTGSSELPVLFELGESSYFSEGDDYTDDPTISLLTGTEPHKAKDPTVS

[3] = target: T2, High affinity choline transporter 1 (Homo sapiens, UniProt Q9GZV3); assay: human choline transporter blockers, potency – cell-based, 5-point CRC, membrane potential dye, dose response (AID 504840); assay type: functional
T2 sequence (Q9GZV3 whole entry): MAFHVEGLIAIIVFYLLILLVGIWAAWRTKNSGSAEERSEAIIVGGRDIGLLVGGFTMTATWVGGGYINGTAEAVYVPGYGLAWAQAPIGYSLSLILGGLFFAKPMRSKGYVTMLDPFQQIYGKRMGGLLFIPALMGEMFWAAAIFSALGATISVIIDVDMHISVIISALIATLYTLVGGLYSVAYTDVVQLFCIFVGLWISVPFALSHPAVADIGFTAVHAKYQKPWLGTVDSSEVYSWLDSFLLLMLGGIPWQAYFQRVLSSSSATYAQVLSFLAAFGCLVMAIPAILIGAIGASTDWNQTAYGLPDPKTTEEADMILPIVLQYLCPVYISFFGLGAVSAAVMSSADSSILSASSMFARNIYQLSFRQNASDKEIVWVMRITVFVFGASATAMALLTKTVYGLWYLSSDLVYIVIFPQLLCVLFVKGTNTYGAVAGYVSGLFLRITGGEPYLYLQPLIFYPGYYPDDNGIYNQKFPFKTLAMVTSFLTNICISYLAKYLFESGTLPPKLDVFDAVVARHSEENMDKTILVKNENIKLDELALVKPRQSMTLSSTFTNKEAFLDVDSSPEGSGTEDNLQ

[4] = reduction of Shn3 3'UTR-driven luciferase in osteoblasts – cell-based, Clone20 osteoblasts, firefly luciferase, cherry-picked, dose response (AID 624132); assay type: functional;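 note: firefly luciferase luminescence from reporter carrying the Shn3 3'UTR in osteoblasts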
[5] = loss of viability in HepG2 cells – cell-based, CellTiter-Glo, cherry-picked, cytotoxicity control for Shn3 inhibitor project, dose response (AID 624134); assay type: functional
[6] = non-specific 3'UTR reporter inhibition in Clone20-Shn3RL – cell-based, Renilla luciferase, cherry-picked, counter-screen for Shn3 inhibitor project, dose response (AID 624133); assay type: functional
Protein skinhead-1 = target: T3, Protein skinhead-1 (Caenorhabditis elegans, UniProt P34707); assay type: functional
T3 sequence (P34707 whole entry): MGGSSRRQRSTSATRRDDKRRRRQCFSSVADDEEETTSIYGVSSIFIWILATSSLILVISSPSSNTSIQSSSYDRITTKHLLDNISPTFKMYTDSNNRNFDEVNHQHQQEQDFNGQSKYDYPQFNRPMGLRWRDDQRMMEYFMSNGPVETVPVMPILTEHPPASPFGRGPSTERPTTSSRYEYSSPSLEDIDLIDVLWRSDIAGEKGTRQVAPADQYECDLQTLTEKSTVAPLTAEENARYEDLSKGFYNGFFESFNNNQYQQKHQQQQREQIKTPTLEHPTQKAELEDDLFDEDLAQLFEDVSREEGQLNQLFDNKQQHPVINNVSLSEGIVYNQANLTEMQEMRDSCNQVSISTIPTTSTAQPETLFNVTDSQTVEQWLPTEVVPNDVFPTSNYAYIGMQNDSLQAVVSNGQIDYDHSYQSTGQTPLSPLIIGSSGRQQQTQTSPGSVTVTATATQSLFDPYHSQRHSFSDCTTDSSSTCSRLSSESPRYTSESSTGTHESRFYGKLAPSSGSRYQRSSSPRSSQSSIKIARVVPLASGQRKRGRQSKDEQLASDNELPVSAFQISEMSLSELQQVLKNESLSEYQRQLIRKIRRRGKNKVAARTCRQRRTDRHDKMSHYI

[7] = target: T4, Polyadenylate-binding protein 1 (Homo sapiens, UniProt P11940); assay: MLLE binding blockers, Cy5 peptide tracer – biochemical, fluorescence polarization, Cy5-PAM2 peptide, secondary, miRNA deadenylation inhibitor project, dose response (AID 602260); assay type: functional; details: read-out: IC50_Mean
T4 sequence (P11940 whole entry, the tested form may be a part): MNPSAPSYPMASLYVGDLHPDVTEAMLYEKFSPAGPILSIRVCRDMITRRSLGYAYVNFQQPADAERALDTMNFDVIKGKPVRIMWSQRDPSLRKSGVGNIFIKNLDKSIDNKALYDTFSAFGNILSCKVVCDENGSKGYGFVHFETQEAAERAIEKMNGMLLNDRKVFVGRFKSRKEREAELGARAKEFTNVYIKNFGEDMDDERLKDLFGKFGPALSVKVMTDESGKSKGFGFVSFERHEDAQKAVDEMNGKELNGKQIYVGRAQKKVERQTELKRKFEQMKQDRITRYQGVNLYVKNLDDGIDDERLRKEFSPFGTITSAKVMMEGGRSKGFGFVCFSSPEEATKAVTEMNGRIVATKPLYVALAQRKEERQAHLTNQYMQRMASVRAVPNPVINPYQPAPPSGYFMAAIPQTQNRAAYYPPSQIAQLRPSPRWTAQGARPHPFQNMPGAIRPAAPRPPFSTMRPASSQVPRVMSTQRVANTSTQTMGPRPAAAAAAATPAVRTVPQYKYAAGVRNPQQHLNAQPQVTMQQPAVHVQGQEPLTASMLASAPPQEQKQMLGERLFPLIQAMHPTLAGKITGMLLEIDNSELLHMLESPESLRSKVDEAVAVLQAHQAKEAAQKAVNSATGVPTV

[8] = target: T4, Polyadenylate-binding protein 1; assay: MLLE domain peptide-binding blockers, IC50 – biochemical, fluorescence polarization, FITC-PAM2 peptide, dose response (AID 602259); assay type: functional; details: read-out: IC50_Mean
[9] = blockers of HIV-1 envelope-mediated cell-cell fusion – cherry-pick, dose response (AID 652057); assay type: functional, cell-based
[10] = target: T5, RNA-binding protein pos-1 (Caenorhabditis elegans, UniProt G5EF15); assay: disruptors of C. elegans POS-1 RNA interaction – biochemical, fluorescence polarization, dose response (AID 1964);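 note: purified POS-1 fused to maltose binding protein made in E. coli; potency of compounds blocking POS-1 binding to fluorescent RNA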
T5 sequence (G5EF15 whole entry): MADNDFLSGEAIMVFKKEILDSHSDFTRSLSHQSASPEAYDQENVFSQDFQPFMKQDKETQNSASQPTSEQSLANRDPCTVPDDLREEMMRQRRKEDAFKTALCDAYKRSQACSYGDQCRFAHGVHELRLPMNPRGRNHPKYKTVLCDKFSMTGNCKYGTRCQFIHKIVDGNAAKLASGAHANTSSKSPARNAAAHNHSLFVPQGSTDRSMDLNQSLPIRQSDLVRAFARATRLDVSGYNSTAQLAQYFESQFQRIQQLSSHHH

[11] = target: T6, Zinc finger protein mex-5 (Caenorhabditis elegans, UniProt Q9XUB2); assay: potency of MEX-5 RNA-binding blockers – biochemical, C. elegans, fluorescence polarization, dose response (AID 1960)
T6 sequence (Q9XUB2 whole entry): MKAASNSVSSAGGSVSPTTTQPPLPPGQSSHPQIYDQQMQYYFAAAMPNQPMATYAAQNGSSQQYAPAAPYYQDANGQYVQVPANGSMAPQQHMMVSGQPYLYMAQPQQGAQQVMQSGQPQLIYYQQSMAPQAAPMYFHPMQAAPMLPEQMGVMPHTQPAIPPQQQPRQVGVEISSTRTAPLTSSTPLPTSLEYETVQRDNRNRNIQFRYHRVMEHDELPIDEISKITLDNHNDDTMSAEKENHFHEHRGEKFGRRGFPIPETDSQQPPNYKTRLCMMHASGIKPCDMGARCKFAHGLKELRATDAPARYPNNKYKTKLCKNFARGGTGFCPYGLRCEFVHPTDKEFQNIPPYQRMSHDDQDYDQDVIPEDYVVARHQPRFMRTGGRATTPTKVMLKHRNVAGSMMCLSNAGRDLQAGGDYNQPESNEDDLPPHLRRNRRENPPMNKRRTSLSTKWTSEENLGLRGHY

cells = assay type: functional
[12] = target: T7, Corticotropin-releasing factor receptor 2/Corticotropin-releasing factor-binding protein (Homo sapiens, UniProt P24387+Q13324); assay: activators of CRF receptor 2 with binding protein – uHTS hits, confirmation (AID 602473); assay type: functional; details: read-out: EC50_Mean
T7 sequence (Q13324 whole entry): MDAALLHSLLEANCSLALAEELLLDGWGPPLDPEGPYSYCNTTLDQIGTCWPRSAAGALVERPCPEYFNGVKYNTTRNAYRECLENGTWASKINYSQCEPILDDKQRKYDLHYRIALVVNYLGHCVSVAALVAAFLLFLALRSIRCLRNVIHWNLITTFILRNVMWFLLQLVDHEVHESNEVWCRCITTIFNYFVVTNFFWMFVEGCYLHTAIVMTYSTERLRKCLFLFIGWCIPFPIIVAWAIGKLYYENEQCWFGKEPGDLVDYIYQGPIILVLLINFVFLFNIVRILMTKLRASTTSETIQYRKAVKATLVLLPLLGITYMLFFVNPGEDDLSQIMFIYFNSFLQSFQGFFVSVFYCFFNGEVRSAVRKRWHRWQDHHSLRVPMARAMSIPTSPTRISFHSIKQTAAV
T7 sequence (P24387 whole entry): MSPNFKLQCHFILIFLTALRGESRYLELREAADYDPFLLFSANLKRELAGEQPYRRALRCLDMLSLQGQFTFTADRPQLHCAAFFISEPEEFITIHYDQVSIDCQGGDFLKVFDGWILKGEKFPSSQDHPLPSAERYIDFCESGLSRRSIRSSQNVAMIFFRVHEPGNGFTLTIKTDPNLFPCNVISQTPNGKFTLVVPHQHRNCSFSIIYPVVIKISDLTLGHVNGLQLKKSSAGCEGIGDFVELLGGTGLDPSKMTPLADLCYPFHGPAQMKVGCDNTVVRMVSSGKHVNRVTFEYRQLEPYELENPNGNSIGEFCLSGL

[13] = target: T7, Corticotropin-releasing factor receptor 2/Corticotropin-releasing factor-binding protein; assay: Dose Response confirmation of uHTS hits for small molecule antagonists of the CRF-binding protein and CRF-R2 receptor complex.; assay type: functional; details: read-out: IC50_Mean
[14] = Trypanosoma cruzi growth suppression in host cells – NIH3T3 host cells, beta-gal luminescence, confirmation (AID 2044); assay type: functional, cell-based;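 note: intracellular parasites grown in NIH/3T3 mouse fibroblasts as host cells; luminescent beta-galactosidase reporter signal from transgenic T. cruzi replicating inside host cells; inhibitors lower the luminescence signal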
[15] = NIH3T3 cell viability loss – ATP luminescence, mouse fibroblasts, counter-screen, dose response (AID 2010); assay type: functional, cell-based;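 note: cells exposed to compound for about 90 hours before reading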

O=C(O)c1cnn(-c2nc(-c3cccc([N+](=O)[O-])c3)cs2)c1C(F)(F)F
CC50 [1]: 37.9 µM (active) | EC50 [2]: > 260 µM (inactive) | IC50 [3]: 11 µM (active)

COc1ccc(N2CCN(C(=O)CN3CCN(c4nc(-c5ccc(F)cc5)cs4)CC3)CC2)cc1
AC50 [4]: 1.81 µM (active) | AC50 [5]: 58 µM (active) | AC50 [6]: 1.16 µM (active)

Cc1nn2cc(-c3ccc(Cl)cc3)nc2s1
IC50 (Protein skinhead-1): 15.6 µM (active)

CC(=O)c1cccc(NC(=O)N2CCCC2C(=O)Nc2c(C)cccc2C)c1 (configuration not stated)
IC50 (Protein skinhead-1): > 100 µM (inactive)

Cc1cccc(NC2SC(=O)NC2=O)c1 (configuration not stated)
IC50 [7]: > 66 µM (inactive) | IC50 [8]: > 66 µM (inactive)

CC(C)(C)c1nnc(N=C(S)Nc2ccccc2)s1
IC50 [7]: > 66 µM (inactive) | IC50 [8]: > 66 µM (inactive)

Clc1ccc(OCCSc2ncccn2)cc1
IC50 (Protein skinhead-1): 43.9 µM (active)

COc1cc2sc3ccc(C#Cc4ccc(N)cc4)cc3c(=O)c2cc1OC
IC50 (Protein skinhead-1): > 100 µM (inactive)

C[C@@H]1CN([C@H](C)CO)C(=O)c2cc(NS(=O)(=O)c3ccc(F)cc3)ccc2O[C@H]1CN(C)Cc1ccc(C(F)(F)F)cc1
AC50 [9]: 33.9 µM (active)

Nc1n[nH]c(Sc2c([N+](=O)[O-])cc(C(F)(F)F)cc2[N+](=O)[O-])n1
IC50 [7]: > 66 µM (inactive) | IC50 [8]: > 66 µM (inactive)

O=C(NC(=S)Nc1ccccc1O)c1ccccc1Cl
IC50 [7]: > 66 µM (inactive) | IC50 [8]: > 66 µM (inactive)

CCOC(=O)c1c(-c2ccccc2)csc1NC(=O)C1CCCO1 (configuration not stated)
IC50 [7]: > 66 µM (inactive) | IC50 [8]: > 66 µM (inactive)

CC1CCCCC1NC(=O)c1cccc(N2C(=O)C3C4C=CC(C4)C3C2=O)c1 (configuration not stated)
IC50 [3]: 14.5 µM (active)

FC(F)(F)c1cnc2c(-c3ccc(Cl)cc3Cl)noc2c1
IC50 (Protein skinhead-1): > 100 µM (inactive)

Cc1ccc(/C(O)=C/c2nc3ccccc3oc2=O)cc1
EC50 [10]: > 300 µM (inconclusive) | EC50 [11]: > 300 µM (inconclusive) | IC50 (cells): 4.72 µM (active) | EC50 [12]: 11.4 µM (active)

NC(=O)COC(=O)c1ccc(Cl)c(S(=O)(=O)N2CCN(c3ccc(F)cc3)CC2)c1
IC50 [3]: 13.8 µM (active)

CCCCN(c1nc2ccccc2nc1Cl)S(=O)(=O)c1ccc(C)cc1
AC50 [4]: 7.22 µM (active) | AC50 [5]: > 70 µM (inactive) | AC50 [6]: 30.7 µM (active)

c1ccc2c(c1)OCCc1c-2[nH]c2ccccc12
IC50 (Protein skinhead-1): > 100 µM (inactive)

OC1(c2ccc(Br)cc2)C[N+](c2ccccc2)=C2SCCN21 (configuration not stated)
IC50 [7]: > 66 µM (inactive) | IC50 [8]: > 66 µM (inactive)

CC(c1ccccc1)N1CCc2[nH]c(=S)[nH]c(=O)c2C1 (configuration not stated)
IC50 [7]: > 66 µM (inactive) | IC50 [8]: > 66 µM (inactive)

COc1ccc(NC(=S)N/N=C2\CC(C)(C)Oc3ccc(OC)cc32)cc1
IC50 [7]: > 66 µM (inactive) | IC50 [8]: > 66 µM (inactive)

Cc1ccc(C(=O)N2c3ccccc3N(Cc3ccccc3)C(=O)C2(C)C)cc1
IC50 [13]: 5.66 µM (active) | AC50 [4]: 6.92 µM (active) | AC50 [5]: > 70 µM (inactive) | EC50 [12]: > 53 µM (inactive) | AC50 [6]: 4.11 µM (active)

CN(c1cccc(NC(=O)CN(c2ccc(C34CC5CC(CC(C5)C3)C4)cc2)S(C)(=O)=O)c1)S(C)(=O)=O
EC50 [14]: 1.6 µM (active) | EC50 [15]: 7.81 µM (active) | AC50 [4]: 7.58 µM (active) | AC50 [5]: 31.2 µM (active) | AC50 [6]: 7.86 µM (active)

CC1CCN(Cc2ccc(-c3nnn(CC(=O)Nc4ccccc4Cl)n3)cc2)CC1
AC50 [4]: 1.77 µM (active) | AC50 [5]: > 70 µM (inactive) | AC50 [6]: 3.25 µM (active)

COc1ccc(C2=NS(=O)(=O)N(C)C(C(=O)N3CCc4ccccc4C3)=C2)cc1OC
AC50 [4]: 4.99 µM (active) | AC50 [5]: 69.3 µM (active) | AC50 [6]: 4.43 µM (active)

Cc1ccc(S(=O)(=O)Nc2ccc3ncccc3c2)cc1
AC50 [4]: 2.2 µM (active) | AC50 [5]: 45.9 µM (active) | AC50 [6]: 29.3 µM (active)
